Data published in patent US8226986B2 (priority 2006, dated 2012).
Read-outs that look alike come from different tables or passages of the source. Marks after values point to notes of the source that are not given here.

How the values were obtained:
[1] = test system: Irritable bowel syndrome; details: 25, 50, or 100 mg/kg IP, 10 minutes post IBS model; cited from earlier work
[2] = test system: Cerebral Ischemia; details: 0.18 mmol/kg IP, 24 hours after MCAO; cited from earlier work
[3] = test system: erectile dysfunction; details: 0.25-80 umol/kg, Intracaver., before experiment; cited from earlier work
[4] = test system: cardioprotectant; details: 2.8 umol/kg IV, time zero; cited from earlier work
[5] = test system: Gastric injury caused by NSAIDS; details: 25, 50, 100, or 150 mol/kg IP, immediately prior; cited from earlier work
[6] = test system: inflammation; details: 1, 5 and 10 mg/kg IP, 1-6 hours before study; cited from earlier work
[7] = test system: myocardial ishemia-reperfusion injury; details: 3 mg/kg IP, 15 min before LAD; cited from earlier work
[8] = test system: vascular calcification; details: 2.8 or 14 uM/day, daily; cited from earlier work
[9] = test system: neutrophil adhesion, leukocyte-mediated inflam.; details: cited from earlier work
[10] = test system: aortic occlusion-induced ischemia/reperfusion (I/R) injury; format: in vivo, pig; details: median, initial study
[11] = test system: myocardial ischemia-reperfusion injury; parameters: dose or concentration left out as unconfirmed; details: 1 um, 10 um NaHS, perfusion, 10 min prior to LCA occlusion; cited from earlier work

For `Nc1ccc(O)c(C(=O)Oc2ccc(-c3cc(=S)ss3)cc2)c1` [ATB-429], the “Benefit: pain and inflammation” value [1] is given as “Pain killing and some”.
For `S` [NaHS, sodium hydrosulfide], the infarct volume [2] is listed as “increased to 150% of % of control”, the “Benefit: intra-cavernous pressure” value [3] is listed as “Increase intra-” and the “Benefit: central venous pressure” value [4] is listed as “decrease central”. For the same compound, the “Benefit: injury produced by NSAID and ASA” value [5] was “reduces injury”, the “Benefit: substance P levels” value [6] was “Increases substance P” and the “Benefit: cardioprotection” value [7] was “cardioprotective opens”. For the same compound, the “Benefit: vascular calcification” value [8] was “reduces vascular”, the “Benefit: inflammation” value ([9]; 1-100 uMol/kg IP, 30 min prior to cargeenan injection) was “inhibits inflammation” and the “Tail moment (comet assay, DNA damage)” value ([10]; 1 h after clamping) was 0.12 §. The “Tail moment (comet assay, DNA damage)” value ([10]; 2 h after clamping) was 0.12 §, the “Tail moment (comet assay, DNA damage)” value ([10]; 4 h after clamping) was 0.14 and the “Tail moment (comet assay, DNA damage)” value ([10]; 8 h after clamping) was 0.14. The “Tail moment (comet assay, DNA damage)” value ([10]; Before clamping) was 0.11 and the “Tail moment (comet assay, DNA damage)” value ([10]; Before infusion) was 0.125.
In the case of `O.[Na+].[SH-]` [NaHS•xH2O], the “Benefit: infarct size” value [11] is listed as “NAHS, limited infarct”.
In the case of sodium sulfide [Na2S], the “Benefit: inflammation” value ([9]; rat, in vivo, ip) is listed as “inhibits inflammation”.
